Measurements published in patent publication US20250332249A1, “CYTOM[…] CELL EPITOPES AND USES THEREOF” (LA JOLLA INSTITUTE FOR IMMUNOLOGY, priority 2021, published 2025).
Where no end group is shown, it is not given here.

Test system: PBMCs from HCMV seropositive subjects
Experiment: ex vivo IFN-γ Fluorospot assay
Assay type: cell-based, human
Details: 19 HCMV seropositive subjects, individual peptide 10 ug/ml, 20 hr; for No. of subjects responding: IFN-γ; for Magnitude of response: IFN-γ spots (FIG. 1: SFC/10^6 PBMC; no unit in table)
Procedure: To define the targets of HCMV-specific T cell epitopes recognized in healthy adults, the inventors screened PBMCs of 19 subjects, 10 males and 9 females, recruited from San Diego blood bank (SDBB). The HCMV seropositivity of all the subjects was confirmed by IgG ELISA (FIG. 6A). A total of 2593 HCMV peptides covering a total of 563 ORFs (1) were tested. However, as many of these predicted ORFs overlapped 100% with others, as they were internal to longer ORFs, these 563 contained 359 completely unique ORFs composed of ˜150“canonical” ORFs, and an additional ˜200 identified by ribosomal RNA profiling (1). These peptides corresponded to predicted dominant epitopes, based on a bioinformatic method that predicts promiscuous binding to HLA class II molecules (40). Each of the ORFs above was covered by multiple predicted epitopes (with a minimum of at least 2), with the exception of very small ORFs (less than 15-20 amino acid residues), in which case at least one peptide was synthetized. The 2593 peptides were arranged in 89 pools of 28-30 15-mer peptides. PBMC reactivity of each of the 89 pools was assayed directly ex vivo using an IFN-γ Fluorospot assay.
For the initial CMV ORF screen, the responses of 19 CMV-seropositive subjects were evaluated. PBMCs were stimulated with 89 pools covering 563 ORFs of HCMV. Each pool comprised of 28-30 15-mer peptides overlapping by 10 residues. PBMCs that were found reactive to a pool were further tested against individual peptides contained in the pool using IFN-γ Fluorospot assay.
PBMC were thawed, washed and counted for viability using the trypan blue exclusion method. 200,000 cells were plated in triplicates and stimulated with pools (2 ug/ml) or peptides (10 ug/ml), PHA (10 ug/ml) or medium containing equivalent amount of DMSO in 96-well plates (Immubilion-P, Millipore) previously coated with anti IFN-γ antibody (1-DIK, Mabtech, Stockholm, Sweden). After 20 hr incubation at 37° C., cells were discarded and wells were washed six times with PBS/0.05% Tween 20 using an automated plate washer and further incubated with IFN-γ antibody (7-B6-1-FS-BAM) for 2 hrs at room temperature. After incubation, wells were washed and incubated with fluorophore conjugated anti-BAM-490 antibody for 1 hr at room temperature. Finally, the plates were washed and incubated with fluorescence enhancer for 15 min, blotted dry and fluorescent spots were counted by computer assisted image analysis (IRIS Fluorospot reader, Mabtech, Sweden).
Each pool or peptide was considered positive compared to the background that had equivalent amount of DMSO based on the following criteria: (i) 20 or more spot forming cells (SFC) per 10^6 PBMC after background subtraction, (ii) the stimulation index greater than 2, and (iii) p<0.05 by student's t test or Poisson distribution test

Substance	No. of subjects responding	Magnitude of response
211 (LFCGACVITRSLLLI) [compound 211]	1	487
231 (YNRMVRFIINYVGKW) [compound 231]	1	23
95 (TMRKLKRKQALVKEQ) [compound 95]	1	1563
101 (PEYIVQIQNAFETNQ) [compound 101]	4	527
105 (SWLGQMLRPVGLCTL) [compound 105]	1	43
187 (LHRRAAVSGRRSLLQ) [compound 187]	1	87
159 (SCTHPYVISLVTPLT) [compound 159]	1	80
146 (GNLQVTYVRHYLKNH) [compound 146]	4	655
7 (MRTVPVTKLYTSRMV) [compound 7]	1	5677
204 (FPSARDIPKQLPEQP) [compound 204]	1	27
217 (VFQKTLSMLQGLYLR) [compound 217]	2	327
181 (SPVAAELPHPSPAPM) [compound 181]	2	166
99 (LFIIAFFSREPTKDL) [compound 99]	1	190
85 (RVGITIQQLNVYHQL) [compound 85]	1	963
140 (MSTKRSTVPWYPITQ) [compound 140]	3	477
167 (LRRKMMYMCYRNIEF) [compound 167]	6	1697
47 (LTLRRTIGTLSRLVP; ends and bridges not checked) [compound 47]	1	163
216 (VSVLYFMPSEPGSAH) [compound 216]	1	177
190 (VVRFALYLETLSRIV) [compound 190]	2	123
102 (GALTLVIPSWHVFAS) [compound 102]	2	190
145 (VRGGIVENKSVSSVV) [compound 145]	5	2691
3 (RVRTWFVQRTTLWRR) [compound 3]	1	60

Substance	No. of subjects responding	Magnitude of response
189 (HVRLLSYRGDPLVFK) [compound 189]	3	333
1 (NGIRWQYQELQYLVE) [compound 1]	2	222
141 (LRVTFHRVKPTLQRE) [compound 141]	2	830
41 (GMKTVAFDLSSPQKS; ends and bridges not checked) [compound 41]	1	193
188 (MLRLLFTLVLLALYG) [compound 188]	3	4593
50 (WPERCFIQLRSRSAL; ends and bridges not checked) [compound 50]	3	313
5 (QGATYQLSIVRQAMQ; ends and bridges not checked) [compound 5]	1	650
196 (PTWSTTVNAHNSFLH) [compound 196]	1	47
193 (FCVYRYNARLTRGYV) [compound 193]	3	700
94 (SFYLVNAMSRNLFRV) [compound 94]	1	43
19 (KFVLQDFDVQHLRRL) [compound 19]	1	40
177 (STPFLMEHTMPVTHP) [compound 177]	4	740
164 (LQTMLRKEVNSQLSL) [compound 164]	2	1606
75 (GLVVFWQGIKQKSLV) [compound 75]	1	53
35 (RAHIQKFERLHVRRF; ends and bridges not checked) [compound 35]	1	2523
180 (VVVGIVLCLSLASTV) [compound 180]	1	1417
220 (QIYARSLAADYLCCD) [compound 220]	1	33
179 (VMVRIFSTNQGGFML) [compound 179]	2	3560
92 (MQKYFSLDNFLHDYV) [compound 92]	2	20343
84 (QILWTDGLARRTRDR) [compound 84]	1	37
49 (GRLMEVRQRNGRLRR; ends and bridges not checked) [compound 49]	1	30
232 (ITFCLYVGQFLAYVR) [compound 232]	1	27

Substance	No. of subjects responding	Magnitude of response
212 (MNLVMLILALWAPVA) [compound 212]	1	553
221 (DFRDLLNFIRQRLCC) [compound 221]	1	30
155 (MSATRHHRCCTLRFR) [compound 155]	1	277
229 (TNIMLQVSNVTNHTL) [compound 229]	1	58
96 (TAVSEFMKNTHVLIR) [compound 96]	1	747
56 (RHRFLWQRRRRARLL) [compound 56]	1	1000
32 (TGLVLLLLLLVVRLL) [compound 32]	1	1440
15 (FVAESITEFLNIGLR) [compound 15]	1	530
173 (EAIVAYTLATAGASS) [compound 173]	3	19333
68 (EGIMVVYKRNIVAHT) [compound 68]	1	637
46 (SYRSTYIILLLTWFA; ends and bridges not checked) [compound 46]	3	3990
38 (RRTVLFNELMLWLGY; ends and bridges not checked) [compound 38]	1	180
14 (KDRCLVIRRRWRLVR) [compound 14]	1	60
202 (WKYAKKLNYHYFRLR) [compound 202]	1	237
73 (NLNCMVTITTARSKY) [compound 73]	2	4810
66 (DPSYVREHGVPIHAD) [compound 66]	1	123
163 (MFFLAIRDHDTAGGI) [compound 163]	1	1637
137 (LEERDEWVRSLAVDA) [compound 137]	1	47
76 (QLQFTYDTLRGYINR) [compound 76]	3	2236
48 (RRRMVSVTLFSPYSV; ends and bridges not checked) [compound 48]	1	53
